Laboratory results from article PMC10650464, “Natural Compounds Purified from the Leaves of Aristotelia chilensis: Makomakinol, a New Alkaloid and the Effect of Aristoteline and Hobartine on NaV Channels” (International Journal of Molecular Sciences, 2023).
Like-named read-outs stand apart in the source and are kept apart here.

Experiments:
human NaV1.7/β1 = human NaV1.7/β1 (Homo sapiens, UniProt Q15858); assay: Automated whole-cell patch-clamp electrophysiology (QPatch-16), NaV1.7; assay type: cell-based; details: 50 ms voltage step to −20 mV from −90 mV holding potential; HEK293 cells; mean ± SEM; read-out: IC50, inhibition of NaV1.7 peak current
Procedure: Human embryonic kidney (HEK) 293 cells stably expressing human NaV1.7/β1 (SB Drug Discovery, Glasgow, UK) or Chinese hamster ovary (CHO) cells stably expressing human NaV1.8/β3 in a tetracycline-inducible system were cultured in a minimum essential media (MEM) supplemented with 10% fetal bovine serum (FBS), 2 mM l-glutamine, and selection antibiotics as recommended by the manufacturer. To induce hNaV1.8 expression, tetracycline (1 μg/mL) was added to the culture media 72 h prior to the functional assays. The cells were passaged every 3–4 days after reaching a 70–80% confluence using TrypLE Express (Thermo Fisher Scientific, Scoresby, VIC, Australia) and grown in an incubator at 37 °C with 5% CO2. Prior to the electrophysiology experiments, the cells were dissociated with TrypLE Express and resuspended in Dulbecco’s Modified Eagle Medium (DMEM) with 25 mM HEPES, 100 U/mL penicillin-streptomycin, and 0.04 mg/mL of a trypsin inhibitor from Glycine max (soybean), then stirred for 30 min. […]
The data were plotted and analyzed via GraphPad Prism, version 9.5.1. Statistical significance was defined as p < 0.05 and was determined via the paired t-test. […] The data are expressed as the mean ± standard error of the mean (SEM).

[1] = tested on: rodent vascular smooth muscle; set-up: method as in PMID 31362388; details: rodent vascular smooth muscle ex vivo; via activation of potassium channels and inhibition of CaV1.2; read-out: IC50, vasodilation; cited from earlier work
human NaV1.8/β3 = target: T1, human NaV1.8/β3 (Homo sapiens, UniProt Q9Y5Y9); assay: Automated whole-cell patch-clamp electrophysiology (QPatch-16), NaV1.8; assay type: cell-based; details: for IC50: CHO cells, mean ± SEM; for V1/2 of voltage-dependence of activation of NaV1.8 / V1/2 of voltage-dependence of steady-state fast inactivation of NaV1.8: compound at 50 µM, compared with control before addition, paired t-test
T1 construct: expressed in transfected cells
Procedure: Human embryonic kidney (HEK) 293 cells stably expressing human NaV1.7/β1 (SB Drug Discovery, Glasgow, UK) or Chinese hamster ovary (CHO) cells stably expressing human NaV1.8/β3 in a tetracycline-inducible system were cultured in a minimum essential media (MEM) supplemented with 10% fetal bovine serum (FBS), 2 mM l-glutamine, and selection antibiotics as recommended by the manufacturer. To induce hNaV1.8 expression, tetracycline (1 μg/mL) was added to the culture media 72 h prior to the functional assays. The cells were passaged every 3–4 days after reaching a 70–80% confluence using TrypLE Express (Thermo Fisher Scientific, Scoresby, VIC, Australia) and grown in an incubator at 37 °C with 5% CO2. Prior to the electrophysiology experiments, the cells were dissociated with TrypLE Express and resuspended in Dulbecco’s Modified Eagle Medium (DMEM) with 25 mM HEPES, 100 U/mL penicillin-streptomycin, and 0.04 mg/mL of a trypsin inhibitor from Glycine max (soybean), then stirred for 30 min.
Whole-cell patch-clamp experiments were performed on a QPatch-16 automated electrophysiology platform (Sophion Bioscience, Ballerup, Denmark) using single hole (QPlate 16 with a standard resistance of 2 ± 0.4 MΩ for NaV1.7) or multi-hole (QPlate 16× with a standard resistance 0.2 ± 0.04 MΩ for NaV1.8). Whole-cell currents were filtered at 8 kHz and acquired at 25 kHz and the linear leak was corrected using P/4 subtraction (leak potential −90 mV, leak sweep amplitude 10%).
The extracellular solution contained in mM included NaCl 140 (NaCl 70/Choline Chloride 70 for NaV1.7), KCl 4, CaCl2 2, MgCl2 1, HEPES 10, and glucose 10; pH 7.4; osmolarity 305 mOsm. TTX (1 μM) was added to the extracellular solution for the NaV1.8 recordings to inhibit endogenous TTX-sensitive NaV currents in CHO cells. The intracellular solution contained in mM included CsF 140, EGTA/CsOH 1/5, HEPES 10, and NaCl 10; pH 7.3 with CsOH; osmolarity 320 mOsm. Compounds were made up to a 100 mM stock in DMSO and diluted in an extracellular solution at the concentrations stated. Concentration–response curves at the resting state were acquired using a holding potential of −90 mV and a 50 ms test pulse to −20 mV (for NaV1.7) or +10 mV (for NaV1.8) every 20 s (0.05 Hz). Concentration–response curves at the inactivated state were acquired using a holding potential of −90 mV, an 8 s conditioning pulse to −40 mV, a 20 ms recovery pulse to −90 mV, and a 50 ms test pulse to +10 mV every 20 s (0.05 Hz). Peak current was normalized to the buffer control after 2 min incubations of increasing concentrations of the compound (1–100 μM). I–V curves were obtained with a holding potential of −90 mV and a series of 500 ms step pulses that ranged from −80 to +90 mV in 5 mV increments, followed by a 20 ms test pulse to +10 mV to assess the voltage-dependence of the steady-state fast inactivation (repetition interval 5 s). Peak currents were normalized to the buffer control before and after the 5 min incubation of the compound (50 μM).
The data were plotted and analyzed via GraphPad Prism, version 9.5.1. Statistical significance was defined as p < 0.05 and was determined via the paired t-test. Concentration–response curves were fitted with a four-parameter Hill equation with the variable Hill coefficient. Conductance–voltage curves were generated by calculating the conductance (G) at each voltage (V) using the equation G = I/(V − Vrev), where Vrev is the reversal potential. Conductance–voltage and steady-state fast inactivation relationships were fitted using a Boltzmann equation. The data are expressed as the mean ± standard error of the mean (SEM).

nAChR subtype α3β4 = tested on: nAChR subtype α3β4; set-up: method as in PMID 31276409; details: cited from earlier work
[2] = 8 s conditioning voltage step to −40 mV to inactivate approximately half of the available channels, read-out: IC50, inhibition of NaV1.8 peak current after inactivating conditioning step
[3] = resting state: 50 ms voltage step to 10 mV from −90 mV holding potential, read-out: IC50, inhibition of NaV1.8 peak current

T1 sequence (Q9Y5Y9 whole entry): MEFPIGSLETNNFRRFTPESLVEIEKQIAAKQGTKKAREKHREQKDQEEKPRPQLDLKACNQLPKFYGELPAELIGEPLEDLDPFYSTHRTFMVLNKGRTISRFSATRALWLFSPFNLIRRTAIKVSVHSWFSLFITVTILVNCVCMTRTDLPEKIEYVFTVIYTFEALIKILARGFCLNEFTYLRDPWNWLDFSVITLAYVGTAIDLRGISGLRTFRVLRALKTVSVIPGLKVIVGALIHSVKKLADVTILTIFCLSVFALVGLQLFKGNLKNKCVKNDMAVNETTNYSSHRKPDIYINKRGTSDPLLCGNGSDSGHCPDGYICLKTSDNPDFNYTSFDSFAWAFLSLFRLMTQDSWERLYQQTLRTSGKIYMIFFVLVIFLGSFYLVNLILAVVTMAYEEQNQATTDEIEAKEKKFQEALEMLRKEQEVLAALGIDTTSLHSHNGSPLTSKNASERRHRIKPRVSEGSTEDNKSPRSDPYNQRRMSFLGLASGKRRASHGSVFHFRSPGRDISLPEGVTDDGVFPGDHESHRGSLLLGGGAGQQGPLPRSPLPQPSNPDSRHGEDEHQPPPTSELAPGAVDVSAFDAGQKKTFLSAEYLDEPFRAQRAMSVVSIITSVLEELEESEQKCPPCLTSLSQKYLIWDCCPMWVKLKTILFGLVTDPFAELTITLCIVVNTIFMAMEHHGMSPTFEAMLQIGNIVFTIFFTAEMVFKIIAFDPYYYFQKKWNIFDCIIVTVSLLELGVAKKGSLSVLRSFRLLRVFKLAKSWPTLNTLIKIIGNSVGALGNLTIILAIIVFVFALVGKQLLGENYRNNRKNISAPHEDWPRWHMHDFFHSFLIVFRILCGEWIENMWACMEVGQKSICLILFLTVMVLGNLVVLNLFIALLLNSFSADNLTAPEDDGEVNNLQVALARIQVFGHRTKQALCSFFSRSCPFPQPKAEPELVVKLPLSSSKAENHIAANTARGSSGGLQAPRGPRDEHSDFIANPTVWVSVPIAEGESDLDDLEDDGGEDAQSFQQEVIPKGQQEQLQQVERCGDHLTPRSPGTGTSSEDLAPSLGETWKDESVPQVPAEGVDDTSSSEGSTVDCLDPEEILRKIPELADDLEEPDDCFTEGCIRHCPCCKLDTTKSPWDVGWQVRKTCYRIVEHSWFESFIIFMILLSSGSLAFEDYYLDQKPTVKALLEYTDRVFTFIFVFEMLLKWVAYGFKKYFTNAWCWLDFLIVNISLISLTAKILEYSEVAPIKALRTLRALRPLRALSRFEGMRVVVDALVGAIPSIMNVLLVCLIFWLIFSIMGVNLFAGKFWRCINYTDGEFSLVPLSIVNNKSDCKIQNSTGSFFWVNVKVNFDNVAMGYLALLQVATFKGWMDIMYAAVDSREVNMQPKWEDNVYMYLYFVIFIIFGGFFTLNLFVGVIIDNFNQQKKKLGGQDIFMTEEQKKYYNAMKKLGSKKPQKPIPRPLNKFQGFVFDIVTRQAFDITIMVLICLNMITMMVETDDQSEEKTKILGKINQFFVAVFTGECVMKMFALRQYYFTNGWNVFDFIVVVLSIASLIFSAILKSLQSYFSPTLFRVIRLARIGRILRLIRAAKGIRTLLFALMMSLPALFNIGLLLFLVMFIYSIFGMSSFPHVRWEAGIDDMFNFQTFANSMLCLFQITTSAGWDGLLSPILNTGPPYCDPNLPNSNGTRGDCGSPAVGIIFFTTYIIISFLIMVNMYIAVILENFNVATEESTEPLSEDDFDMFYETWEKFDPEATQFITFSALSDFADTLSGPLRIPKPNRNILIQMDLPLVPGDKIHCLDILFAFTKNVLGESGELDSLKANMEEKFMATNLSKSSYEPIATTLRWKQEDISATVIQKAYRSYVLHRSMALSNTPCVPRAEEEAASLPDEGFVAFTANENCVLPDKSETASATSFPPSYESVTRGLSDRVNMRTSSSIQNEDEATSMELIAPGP
T1 sequence (Q9NY72 25-215 partner limits assumed): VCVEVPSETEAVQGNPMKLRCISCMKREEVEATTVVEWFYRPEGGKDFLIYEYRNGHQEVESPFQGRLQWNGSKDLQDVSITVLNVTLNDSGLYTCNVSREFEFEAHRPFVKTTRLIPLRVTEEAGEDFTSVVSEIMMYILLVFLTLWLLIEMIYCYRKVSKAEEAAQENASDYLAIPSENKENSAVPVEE
Chain of human NaV1.7/β1 (Q15858 whole entry): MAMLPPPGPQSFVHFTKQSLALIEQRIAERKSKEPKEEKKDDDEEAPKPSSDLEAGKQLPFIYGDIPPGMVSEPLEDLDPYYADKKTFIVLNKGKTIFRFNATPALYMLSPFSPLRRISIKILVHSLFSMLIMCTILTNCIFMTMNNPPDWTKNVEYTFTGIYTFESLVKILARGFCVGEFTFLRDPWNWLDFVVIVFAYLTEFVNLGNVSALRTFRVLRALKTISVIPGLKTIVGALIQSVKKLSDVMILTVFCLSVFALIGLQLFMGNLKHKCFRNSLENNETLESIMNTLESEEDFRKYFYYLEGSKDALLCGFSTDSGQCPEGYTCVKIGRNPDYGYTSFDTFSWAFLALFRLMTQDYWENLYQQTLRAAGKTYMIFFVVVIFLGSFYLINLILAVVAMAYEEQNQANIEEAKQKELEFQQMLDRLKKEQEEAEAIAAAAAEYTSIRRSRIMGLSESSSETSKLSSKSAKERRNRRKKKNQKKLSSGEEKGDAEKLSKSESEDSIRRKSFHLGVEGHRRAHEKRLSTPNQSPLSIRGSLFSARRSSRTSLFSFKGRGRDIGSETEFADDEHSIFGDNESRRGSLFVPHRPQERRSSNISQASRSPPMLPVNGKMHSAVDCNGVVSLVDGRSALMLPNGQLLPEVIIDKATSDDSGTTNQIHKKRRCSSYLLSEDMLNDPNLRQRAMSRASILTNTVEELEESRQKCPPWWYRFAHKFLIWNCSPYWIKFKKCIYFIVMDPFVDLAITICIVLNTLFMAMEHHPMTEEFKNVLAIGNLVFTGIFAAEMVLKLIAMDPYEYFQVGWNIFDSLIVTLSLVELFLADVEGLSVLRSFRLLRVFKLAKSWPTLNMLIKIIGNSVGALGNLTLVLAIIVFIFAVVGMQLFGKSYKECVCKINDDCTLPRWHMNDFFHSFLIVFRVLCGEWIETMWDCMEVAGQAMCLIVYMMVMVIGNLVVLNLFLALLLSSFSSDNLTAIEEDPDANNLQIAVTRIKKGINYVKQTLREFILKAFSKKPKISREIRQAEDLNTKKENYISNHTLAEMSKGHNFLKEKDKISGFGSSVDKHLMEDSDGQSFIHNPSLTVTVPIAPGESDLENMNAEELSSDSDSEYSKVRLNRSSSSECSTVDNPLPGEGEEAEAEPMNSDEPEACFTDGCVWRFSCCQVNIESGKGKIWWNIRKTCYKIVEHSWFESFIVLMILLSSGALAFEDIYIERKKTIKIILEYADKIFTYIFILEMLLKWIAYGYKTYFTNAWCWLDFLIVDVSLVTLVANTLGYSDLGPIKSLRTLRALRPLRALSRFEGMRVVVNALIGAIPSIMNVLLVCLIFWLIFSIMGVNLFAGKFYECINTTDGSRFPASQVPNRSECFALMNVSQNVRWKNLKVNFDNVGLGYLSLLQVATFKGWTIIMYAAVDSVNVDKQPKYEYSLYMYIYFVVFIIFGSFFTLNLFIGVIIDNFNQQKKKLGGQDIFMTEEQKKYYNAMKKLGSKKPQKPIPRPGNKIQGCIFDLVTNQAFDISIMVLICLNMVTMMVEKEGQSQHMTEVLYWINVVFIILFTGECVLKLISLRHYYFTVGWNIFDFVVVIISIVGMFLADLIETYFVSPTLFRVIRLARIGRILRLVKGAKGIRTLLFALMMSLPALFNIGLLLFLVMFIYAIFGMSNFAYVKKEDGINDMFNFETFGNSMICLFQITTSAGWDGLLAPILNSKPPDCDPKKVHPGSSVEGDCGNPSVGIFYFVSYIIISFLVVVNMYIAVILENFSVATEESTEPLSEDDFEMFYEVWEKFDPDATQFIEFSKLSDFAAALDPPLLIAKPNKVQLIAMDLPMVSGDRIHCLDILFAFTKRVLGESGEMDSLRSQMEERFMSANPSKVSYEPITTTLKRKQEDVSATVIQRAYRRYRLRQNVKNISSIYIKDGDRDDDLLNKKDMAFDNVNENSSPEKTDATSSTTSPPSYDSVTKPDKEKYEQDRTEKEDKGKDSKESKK
Chain of human NaV1.7/β1 (Q07699 19-218 partner): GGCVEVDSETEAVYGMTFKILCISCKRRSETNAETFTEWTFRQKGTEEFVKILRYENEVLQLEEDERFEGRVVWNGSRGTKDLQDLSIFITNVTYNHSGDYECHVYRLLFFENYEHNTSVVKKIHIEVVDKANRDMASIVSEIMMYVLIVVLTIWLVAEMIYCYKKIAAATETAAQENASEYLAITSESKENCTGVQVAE

| Compound | IC50 (human NaV1.7/β1) | IC50 [1] | IC50 (human NaV1.8/β3; [2]) | V1/2 of voltage-dependence of activation of NaV1.8 (human NaV1.8/β3) | V1/2 of voltage-dependence of steady-state fast inactivation of NaV1.8 (human NaV1.8/β3) | IC50 (human NaV1.8/β3; [3]) | IC50 (nAChR subtype α3β4) | Shift of V1/2 of voltage-dependence of activation of NaV1.8 (human NaV1.8/β3; 50 µM, n = 5) |
| --- | --- | --- | --- | --- | --- | --- | --- | --- |
| CC1(C)NC2Cc3c([nH]c4ccccc34)C3(C)CCC1CC23 (stereo not shown) [aristoteline] | 49 ± 7 µM | 16 µM | 30 ± 6 µM | 1.0 ± 0.0 mV | −34.9 ± 1.4 mV | 68 ± 3 µM | 0.4 µM | – |
| CC1=CC[C@H]2C[C@@H]1[C@@H](Cc1c[nH]c3ccccc13)NC2(C)C [hobartine] | 69 ± 3 µM | – | 20 ± 2 µM | −8.6 ± 0.8 mV | −41.1 ± 3.8 mV | 54 ± 1 µM | – | −9.0 mV |
